This passage reports Kd results from ChEMBL document CHEMBL3991601, “The target landscape of clinical kinase drugs” (Science, 2017).

Broadly, the Kd is the constant that tells how readily two partners part at equilibrium.

The target in assay [1] is Protein-tyrosine kinase 6 (Homo sapiens, UniProt Q13882).
The target in assay [2] is T1, Adenine phosphoribosyltransferase (Homo sapiens, UniProt P07741).
T1 sequence (P07741 whole entry): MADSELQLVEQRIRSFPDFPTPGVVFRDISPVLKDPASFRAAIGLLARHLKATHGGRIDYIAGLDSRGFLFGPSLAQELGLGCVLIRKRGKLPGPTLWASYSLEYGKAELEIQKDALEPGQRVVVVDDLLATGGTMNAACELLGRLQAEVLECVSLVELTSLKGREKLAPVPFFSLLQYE

In assay [3] the target is Cyclin-dependent kinase 7 (Homo sapiens, UniProt P50613).
A further assay addresses DNA topoisomerase 2-beta (Homo sapiens, UniProt Q02880).
The target of assay [4] is Serine/threonine-protein kinase/endoribonuclease IRE2 (Homo sapiens, UniProt Q76MJ5).
Assay [5] addresses cAMP-dependent protein kinase catalytic subunit alpha (Homo sapiens, UniProt P17612).
A further assay has as its target Ephrin type-A receptor 5 (Homo sapiens, UniProt P54756).
In assay [6] the target is T2, Serine/threonine-protein kinase TBK1 (Homo sapiens, UniProt Q9UHD2).
T2 sequence (Q9UHD2 whole entry): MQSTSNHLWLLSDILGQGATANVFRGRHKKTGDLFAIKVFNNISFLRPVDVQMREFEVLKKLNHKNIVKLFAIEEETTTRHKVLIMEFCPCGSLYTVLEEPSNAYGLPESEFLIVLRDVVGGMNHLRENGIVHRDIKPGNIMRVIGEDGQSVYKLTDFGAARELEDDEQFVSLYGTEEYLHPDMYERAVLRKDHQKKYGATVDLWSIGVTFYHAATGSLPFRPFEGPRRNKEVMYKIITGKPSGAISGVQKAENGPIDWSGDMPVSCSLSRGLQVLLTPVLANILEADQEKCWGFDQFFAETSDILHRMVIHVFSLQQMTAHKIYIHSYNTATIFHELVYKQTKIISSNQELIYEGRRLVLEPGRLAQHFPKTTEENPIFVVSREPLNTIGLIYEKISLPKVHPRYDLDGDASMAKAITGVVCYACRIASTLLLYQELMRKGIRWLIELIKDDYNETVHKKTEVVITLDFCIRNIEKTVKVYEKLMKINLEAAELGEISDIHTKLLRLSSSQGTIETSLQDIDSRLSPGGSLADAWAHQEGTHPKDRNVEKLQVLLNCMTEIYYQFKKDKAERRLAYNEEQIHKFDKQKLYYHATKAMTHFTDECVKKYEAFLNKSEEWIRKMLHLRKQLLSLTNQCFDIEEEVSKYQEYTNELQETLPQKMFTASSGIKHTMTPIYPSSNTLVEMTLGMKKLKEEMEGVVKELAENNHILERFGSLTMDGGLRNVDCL

For assay [7], the target named is T3, Serine/threonine-protein kinase LATS1 (Homo sapiens, UniProt O95835).
T3 sequence (O95835 whole entry): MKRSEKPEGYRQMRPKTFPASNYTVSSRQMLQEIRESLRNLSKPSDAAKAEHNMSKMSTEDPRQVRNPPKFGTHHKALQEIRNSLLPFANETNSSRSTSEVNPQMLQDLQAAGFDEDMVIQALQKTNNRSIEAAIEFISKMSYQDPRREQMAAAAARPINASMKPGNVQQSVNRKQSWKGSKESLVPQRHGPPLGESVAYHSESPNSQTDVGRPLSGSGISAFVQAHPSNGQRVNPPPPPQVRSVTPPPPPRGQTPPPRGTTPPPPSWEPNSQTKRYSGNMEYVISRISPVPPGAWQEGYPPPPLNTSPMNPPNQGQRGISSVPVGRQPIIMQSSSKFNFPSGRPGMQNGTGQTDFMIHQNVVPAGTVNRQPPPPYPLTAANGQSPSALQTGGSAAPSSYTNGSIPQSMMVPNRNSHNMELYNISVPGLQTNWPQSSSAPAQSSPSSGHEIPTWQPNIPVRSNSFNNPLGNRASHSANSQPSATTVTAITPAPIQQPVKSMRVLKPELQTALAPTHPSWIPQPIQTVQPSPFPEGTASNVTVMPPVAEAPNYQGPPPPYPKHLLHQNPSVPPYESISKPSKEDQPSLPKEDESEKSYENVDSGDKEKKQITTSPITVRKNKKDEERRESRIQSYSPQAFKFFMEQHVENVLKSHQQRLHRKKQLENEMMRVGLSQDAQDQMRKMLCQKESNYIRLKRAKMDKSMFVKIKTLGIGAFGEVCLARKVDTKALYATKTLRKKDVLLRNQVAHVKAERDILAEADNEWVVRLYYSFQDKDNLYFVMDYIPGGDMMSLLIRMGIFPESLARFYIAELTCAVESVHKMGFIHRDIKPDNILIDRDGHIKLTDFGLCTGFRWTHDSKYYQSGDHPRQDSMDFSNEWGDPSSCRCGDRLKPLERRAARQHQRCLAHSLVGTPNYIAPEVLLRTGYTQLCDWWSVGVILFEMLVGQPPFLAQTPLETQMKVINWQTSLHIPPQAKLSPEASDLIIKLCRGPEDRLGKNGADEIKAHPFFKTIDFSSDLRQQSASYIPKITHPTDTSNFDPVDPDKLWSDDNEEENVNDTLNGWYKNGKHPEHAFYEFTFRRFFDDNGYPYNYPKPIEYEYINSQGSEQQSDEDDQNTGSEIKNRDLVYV

For assay [8], the target named is 5'-AMP-activated protein kinase catalytic subunit alpha-1 (Homo sapiens, UniProt Q13131).
For assay [9], the target named is Serine/threonine-protein kinase N1 (Homo sapiens, UniProt Q16512).

Each structure is given as a SMILES string. Active and inactive are the calls of the source. For most assays here, no stated cut-off is given here; in the data, actives have a measured Kd and inactives only a lower limit. Some results are limits rather than exact numbers.

Chain of Protein-tyrosine kinase 6 (Q13882 whole entry): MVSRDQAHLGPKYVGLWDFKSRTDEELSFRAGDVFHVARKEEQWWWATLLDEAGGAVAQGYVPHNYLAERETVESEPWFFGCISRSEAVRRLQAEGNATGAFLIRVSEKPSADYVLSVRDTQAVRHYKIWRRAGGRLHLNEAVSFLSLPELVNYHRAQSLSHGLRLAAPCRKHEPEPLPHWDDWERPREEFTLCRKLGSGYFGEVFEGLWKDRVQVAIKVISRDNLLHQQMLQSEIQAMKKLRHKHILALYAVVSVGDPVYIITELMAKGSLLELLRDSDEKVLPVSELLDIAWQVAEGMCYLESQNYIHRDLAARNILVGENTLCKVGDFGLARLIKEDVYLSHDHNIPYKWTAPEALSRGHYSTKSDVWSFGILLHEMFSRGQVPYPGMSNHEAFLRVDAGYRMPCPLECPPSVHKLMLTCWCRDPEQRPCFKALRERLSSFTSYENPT
Chain of Ephrin type-A receptor 5 (P54756 whole entry): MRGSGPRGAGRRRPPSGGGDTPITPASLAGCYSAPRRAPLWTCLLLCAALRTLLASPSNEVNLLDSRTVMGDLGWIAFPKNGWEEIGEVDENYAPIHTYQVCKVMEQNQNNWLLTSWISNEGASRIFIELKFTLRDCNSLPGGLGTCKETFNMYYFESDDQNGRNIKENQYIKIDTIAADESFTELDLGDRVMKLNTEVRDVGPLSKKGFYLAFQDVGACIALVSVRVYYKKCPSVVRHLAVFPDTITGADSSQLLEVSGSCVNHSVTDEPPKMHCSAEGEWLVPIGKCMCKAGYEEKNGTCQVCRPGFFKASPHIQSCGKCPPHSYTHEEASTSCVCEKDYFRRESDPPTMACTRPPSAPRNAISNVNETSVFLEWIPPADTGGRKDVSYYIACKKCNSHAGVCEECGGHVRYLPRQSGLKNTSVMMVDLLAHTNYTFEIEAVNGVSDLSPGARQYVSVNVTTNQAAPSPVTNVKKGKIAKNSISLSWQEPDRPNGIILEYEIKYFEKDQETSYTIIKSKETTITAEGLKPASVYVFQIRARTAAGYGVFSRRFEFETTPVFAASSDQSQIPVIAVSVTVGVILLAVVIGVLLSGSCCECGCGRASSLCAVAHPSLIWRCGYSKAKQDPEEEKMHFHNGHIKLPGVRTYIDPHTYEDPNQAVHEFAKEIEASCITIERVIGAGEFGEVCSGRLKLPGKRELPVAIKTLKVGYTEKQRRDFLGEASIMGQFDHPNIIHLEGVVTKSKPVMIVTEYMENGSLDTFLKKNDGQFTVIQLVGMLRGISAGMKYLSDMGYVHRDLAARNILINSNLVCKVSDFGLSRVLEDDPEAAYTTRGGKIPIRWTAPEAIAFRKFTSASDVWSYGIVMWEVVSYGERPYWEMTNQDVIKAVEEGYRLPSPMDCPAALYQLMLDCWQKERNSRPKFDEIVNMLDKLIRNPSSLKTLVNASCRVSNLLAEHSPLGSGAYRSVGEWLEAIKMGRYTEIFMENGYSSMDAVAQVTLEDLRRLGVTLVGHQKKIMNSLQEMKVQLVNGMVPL
Chain of Serine/threonine-protein kinase N1 (Q16512 whole entry): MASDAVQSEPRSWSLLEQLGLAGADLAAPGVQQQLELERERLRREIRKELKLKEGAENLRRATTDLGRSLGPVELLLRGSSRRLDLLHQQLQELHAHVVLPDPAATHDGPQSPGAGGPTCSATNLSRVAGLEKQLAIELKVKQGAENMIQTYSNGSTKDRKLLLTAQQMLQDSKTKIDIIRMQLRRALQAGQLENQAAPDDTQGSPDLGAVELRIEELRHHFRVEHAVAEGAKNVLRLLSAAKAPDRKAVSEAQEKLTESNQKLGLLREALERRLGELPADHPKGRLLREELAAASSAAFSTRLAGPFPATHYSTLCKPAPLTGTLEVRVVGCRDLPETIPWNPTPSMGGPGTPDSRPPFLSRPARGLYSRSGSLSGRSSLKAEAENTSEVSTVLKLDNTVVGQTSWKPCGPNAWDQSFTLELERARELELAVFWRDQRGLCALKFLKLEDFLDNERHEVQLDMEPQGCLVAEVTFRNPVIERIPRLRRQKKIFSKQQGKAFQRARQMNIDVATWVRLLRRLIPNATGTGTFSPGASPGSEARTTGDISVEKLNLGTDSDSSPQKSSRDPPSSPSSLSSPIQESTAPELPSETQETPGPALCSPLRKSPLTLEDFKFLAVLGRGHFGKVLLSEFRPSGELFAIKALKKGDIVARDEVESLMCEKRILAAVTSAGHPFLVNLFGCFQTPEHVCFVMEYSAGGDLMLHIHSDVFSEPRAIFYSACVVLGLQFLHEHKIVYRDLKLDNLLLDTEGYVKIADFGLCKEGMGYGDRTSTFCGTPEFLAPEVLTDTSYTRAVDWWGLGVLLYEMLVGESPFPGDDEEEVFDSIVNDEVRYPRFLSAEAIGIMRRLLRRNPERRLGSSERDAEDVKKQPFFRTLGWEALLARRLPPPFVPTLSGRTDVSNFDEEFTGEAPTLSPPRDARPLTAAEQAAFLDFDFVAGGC
Chain of Cyclin-dependent kinase 7 (P50613 whole entry): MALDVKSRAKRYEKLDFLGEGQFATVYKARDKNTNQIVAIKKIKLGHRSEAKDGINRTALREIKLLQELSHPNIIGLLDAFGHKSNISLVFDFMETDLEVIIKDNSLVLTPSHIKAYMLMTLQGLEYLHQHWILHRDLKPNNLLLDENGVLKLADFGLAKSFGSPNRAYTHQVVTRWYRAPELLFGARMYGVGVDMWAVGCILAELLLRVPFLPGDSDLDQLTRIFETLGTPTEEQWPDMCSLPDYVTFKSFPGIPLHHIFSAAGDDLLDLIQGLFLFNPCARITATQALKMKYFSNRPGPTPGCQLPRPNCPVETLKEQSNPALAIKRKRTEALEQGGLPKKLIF
Chain of DNA topoisomerase 2-beta (Q02880 whole entry): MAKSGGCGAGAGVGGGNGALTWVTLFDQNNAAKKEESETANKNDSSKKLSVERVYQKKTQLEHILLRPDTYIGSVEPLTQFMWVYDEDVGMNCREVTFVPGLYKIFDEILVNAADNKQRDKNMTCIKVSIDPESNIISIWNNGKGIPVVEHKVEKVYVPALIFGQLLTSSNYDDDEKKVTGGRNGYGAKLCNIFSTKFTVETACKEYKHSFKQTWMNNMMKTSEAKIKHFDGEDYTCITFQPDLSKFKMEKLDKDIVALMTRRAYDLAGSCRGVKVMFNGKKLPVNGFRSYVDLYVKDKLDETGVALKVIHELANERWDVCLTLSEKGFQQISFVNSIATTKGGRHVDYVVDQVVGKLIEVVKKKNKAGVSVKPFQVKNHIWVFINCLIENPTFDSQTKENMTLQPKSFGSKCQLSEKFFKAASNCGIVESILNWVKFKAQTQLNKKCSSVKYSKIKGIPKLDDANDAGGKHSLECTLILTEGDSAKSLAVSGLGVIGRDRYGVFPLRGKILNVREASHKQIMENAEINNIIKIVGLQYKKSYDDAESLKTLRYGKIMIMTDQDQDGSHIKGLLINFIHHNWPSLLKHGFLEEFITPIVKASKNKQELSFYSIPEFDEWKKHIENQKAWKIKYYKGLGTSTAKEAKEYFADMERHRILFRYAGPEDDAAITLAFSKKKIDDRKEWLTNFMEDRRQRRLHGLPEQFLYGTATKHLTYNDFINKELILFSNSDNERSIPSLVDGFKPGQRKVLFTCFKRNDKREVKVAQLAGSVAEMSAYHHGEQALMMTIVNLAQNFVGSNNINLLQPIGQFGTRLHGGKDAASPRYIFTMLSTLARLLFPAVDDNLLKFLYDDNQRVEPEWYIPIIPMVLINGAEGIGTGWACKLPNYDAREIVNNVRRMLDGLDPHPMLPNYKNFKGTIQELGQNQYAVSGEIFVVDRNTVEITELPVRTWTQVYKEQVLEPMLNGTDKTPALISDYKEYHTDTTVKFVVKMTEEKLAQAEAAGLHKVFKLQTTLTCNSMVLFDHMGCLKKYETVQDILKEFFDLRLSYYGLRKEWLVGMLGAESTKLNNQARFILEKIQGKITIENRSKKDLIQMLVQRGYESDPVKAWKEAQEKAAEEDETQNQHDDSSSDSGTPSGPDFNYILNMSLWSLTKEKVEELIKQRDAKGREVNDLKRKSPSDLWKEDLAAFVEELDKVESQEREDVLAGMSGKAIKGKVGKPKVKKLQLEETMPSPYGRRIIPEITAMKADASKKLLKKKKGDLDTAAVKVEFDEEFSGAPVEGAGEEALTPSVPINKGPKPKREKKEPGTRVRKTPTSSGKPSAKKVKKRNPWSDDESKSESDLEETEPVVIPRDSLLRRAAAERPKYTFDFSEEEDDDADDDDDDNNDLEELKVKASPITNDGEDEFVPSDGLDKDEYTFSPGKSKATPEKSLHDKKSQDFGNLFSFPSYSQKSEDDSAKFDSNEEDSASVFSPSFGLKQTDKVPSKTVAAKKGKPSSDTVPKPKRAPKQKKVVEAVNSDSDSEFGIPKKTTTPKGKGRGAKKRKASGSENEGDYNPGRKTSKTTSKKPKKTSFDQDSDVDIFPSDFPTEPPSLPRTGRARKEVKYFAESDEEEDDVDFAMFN
Chain of 5'-AMP-activated protein kinase catalytic subunit alpha-1 (Q13131 whole entry): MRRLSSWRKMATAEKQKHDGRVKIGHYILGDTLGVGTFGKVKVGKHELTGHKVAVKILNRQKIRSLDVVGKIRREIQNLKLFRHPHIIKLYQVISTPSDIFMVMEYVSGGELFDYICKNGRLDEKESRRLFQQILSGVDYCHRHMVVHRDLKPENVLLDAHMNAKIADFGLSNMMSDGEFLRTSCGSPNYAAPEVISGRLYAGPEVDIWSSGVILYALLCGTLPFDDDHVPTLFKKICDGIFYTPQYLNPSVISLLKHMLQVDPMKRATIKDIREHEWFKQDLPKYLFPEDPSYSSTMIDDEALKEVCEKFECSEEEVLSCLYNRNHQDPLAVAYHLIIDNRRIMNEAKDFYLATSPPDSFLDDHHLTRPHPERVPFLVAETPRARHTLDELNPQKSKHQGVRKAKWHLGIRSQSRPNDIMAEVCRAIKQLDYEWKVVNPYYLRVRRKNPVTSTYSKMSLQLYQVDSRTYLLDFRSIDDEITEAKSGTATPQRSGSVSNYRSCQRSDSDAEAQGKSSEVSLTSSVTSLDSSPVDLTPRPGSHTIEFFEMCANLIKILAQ

Turning to `COc1cc(Nc2ncc(F)c(Nc3ccc4c(n3)N(COP(=O)(O)O)C(=O)C(C)(C)O4)n2)cc(OC)c1OC` [FOSTAMATINIB], the Kd (in [1]; in assay [2]; in assay [3]; on DNA topoisomerase 2-beta; in assay [4]; in assay [5]) was > 30 µM (inactive) in each case. Moreover, the Kd is > 30 µM (inactive) on Ephrin type-A receptor 5; > 30 µM (inactive) in assay [6]; 2.16 µM (active) in [7]; > 30 µM (inactive) in assay [8]; > 30 µM (inactive) in [9].

As for `COc1cccc2cc(-c3nc([C@H]4CC[C@H](C(=O)O)CC4)n4ncnc(N)c34)[nH]c12` [OSI-027], the Kd (in assay [1]; in assay [2]; in [3]; on DNA topoisomerase 2-beta; in assay [4]; in assay [5]) was > 30 µM (inactive) each time. The Kd (at Ephrin type-A receptor 5; in assay [6]; in assay [7]; in assay [8]; in assay [9]) was > 30 µM (inactive) in each case.

With `COc1ccc2c(OCc3nnc4ccc(-c5ccccc5)nn34)ccnc2c1` [AMG-208], the Kd (in assay [1]; in assay [2]; in assay [3]; at DNA topoisomerase 2-beta; in assay [4]; in assay [5]) was > 30 µM (inactive) in each case. Besides, the Kd (on Ephrin type-A receptor 5; in [6]; in assay [7]; in assay [8]; in assay [9]) was > 30 µM (inactive) each time.

With `CC[C@@](C)(Nc1ccnc(-c2c[nH]c3ncccc23)n1)C(=O)NCC(F)(F)F` [DECERNOTINIB], the Kd in assay [1] was > 30 µM (inactive); in [2] it was > 30 µM (inactive); in assay [3], > 30 µM (inactive); at DNA topoisomerase 2-beta, 0.148 µM (active); in assay [4], > 30 µM (inactive); in assay [5], > 30 µM (inactive). Also, the Kd is > 30 µM (inactive) at Ephrin type-A receptor 5; > 30 µM (inactive) in assay [6]; > 30 µM (inactive) in assay [7]; > 30 µM (inactive) in assay [8]; 49.8 µM (active) in assay [9].

On to `COc1cc2nccc(Oc3ccc(NC(=O)C4(C(=O)Nc5ccc(F)cc5)CC4)cc3)c2cc1OC` [CABOZANTINIB], for which the Kd in [1] was 1.76 µM (active); in assay [2], > 30 µM (inactive); in assay [3] it was > 30 µM (inactive); at DNA topoisomerase 2-beta, > 30 µM (inactive); in assay [4] it was > 30 µM (inactive); in [5] it was > 30 µM (inactive). The Kd (on Ephrin type-A receptor 5; in assay [6]; in [7]; in assay [8]; in assay [9]) was > 30 µM (inactive) in each case.
